Measurements as given in patent publication US11203610B2, “2′3′ cyclic dinucleotides with phosphonate bond activating the sting adaptor protein” (INSTITUTE OF ORGANIC CHEMISTRY AND BIOCHEMISTRY ASCR, V.V.I., priority 2017, dated 2021).
pEC50: −log10 of the molar value.

Columns and labels:
WT STING [1] = molecular target: T1, WT STING (Homo sapiens, UniProt Q86WV6, H232R); assay: Differential Scanning Fluorimetry with WT STING; assay type: binding; design: truncated human WT STING or AQ STING (amino acid residues 140-343); 8xHis (N, cleaved yes); SUMO (N, cleaved yes); made in house; host or cells: E. coli Rosetta-gami B (DE3); details: thermal shift vs STING apoprotein; 150 μM CDN; 0.1 mg/ml truncated human WT STING; SYPRO Orange; read-out: DSF ΔTm (° C.) WT STING
Target sequence in this assay (Q86WV6 140-343 H232R): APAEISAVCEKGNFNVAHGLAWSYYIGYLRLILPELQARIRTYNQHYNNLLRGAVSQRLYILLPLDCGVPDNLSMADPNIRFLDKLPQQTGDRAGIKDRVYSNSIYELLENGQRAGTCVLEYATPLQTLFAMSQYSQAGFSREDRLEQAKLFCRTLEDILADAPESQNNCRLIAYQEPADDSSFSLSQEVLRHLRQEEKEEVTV

WT STING [2] = molecular target: T1, WT STING; assay: Digitonin assay using 293T wtSTING-FL reporter cells; assay type: cell-based; details: 293T wtSTING-FL cells; 30 minutes in Digitonin buffer, then 5 hours; ISRE firefly luciferase reporter; 8-point dose-response curve; read-out: Digitonin assay EC50 (μmol · l^−1) WT STING
Target sequence in this assay (Q86WV6 whole entry H232R, the tested form may be a part): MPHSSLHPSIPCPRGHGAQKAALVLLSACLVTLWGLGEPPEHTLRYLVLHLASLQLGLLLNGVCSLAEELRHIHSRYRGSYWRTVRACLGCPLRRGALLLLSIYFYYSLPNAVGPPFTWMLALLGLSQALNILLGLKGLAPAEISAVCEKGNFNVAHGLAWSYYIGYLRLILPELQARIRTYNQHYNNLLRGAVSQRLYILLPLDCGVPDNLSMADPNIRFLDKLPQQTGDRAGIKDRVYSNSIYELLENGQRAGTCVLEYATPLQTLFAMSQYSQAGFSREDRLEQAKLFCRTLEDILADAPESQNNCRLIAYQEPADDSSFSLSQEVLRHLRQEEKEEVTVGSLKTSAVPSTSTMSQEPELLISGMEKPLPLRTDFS

AQ STING (G230A-R293Q) = molecular target: T2, AQ STING (G230A-R293Q) (Homo sapiens, UniProt Q86WV6, G230A/H232R/R293Q); assay: Differential Scanning Fluorimetry with AQ STING; assay type: binding; details: thermal shift vs STING apoprotein; 150 μM CDN; 0.1 mg/ml truncated human AQ STING; SYPRO Orange; read-out: DSF ΔTm (° C.) AQ STING
T2 construct: truncated human WT STING or AQ STING (amino acid residues 140-343); 8xHis (N, cleaved yes); SUMO (N, cleaved yes); made in house; host or cells: E. coli Rosetta-gami B (DE3)
T2 sequence (Q86WV6 140-343 G230A/H232R/R293Q): as the sequence (Q86WV6 140-343 H232R) above, with G91A, R154Q counted along it

| SMILES | ΔTm at 150 µM (WT STING [1]) [°C] | pEC50 (WT STING [2]) | ΔTm at 150 µM (AQ STING (G230A-R293Q)) [°C] |
| --- | --- | --- | --- |
| Nc1nc2c(ncn2[C@@H]2O[C@@H]3OCP(=O)(O)O[C@H]4[C@@H](O)[C@H](n5cnc6c(N)ncnc65)O[C@@H]4COP(=O)(O)O[C@@H]2[C@@H]3F)c(=O)[nH]1 [Compound 60, (1S,6R,8R,9R,10S,15R,17R,18S)-17-(2-amino-6-oxo-6,9-dihydro-1H-purin-9-yl)-8-(6-amino-9H-purin-9-yl)-18-fluoro-3,9,12-trihydroxy-2,4,7,11,14,16-hexaoxa-3λ^5,12λ^5-diphosphatricyclo[13.2.1.0^6,10]octadecane-3,12-dione] | 18.1 | 7.92 | 24 |
| Nc1nc2c(nnn2[C@@H]2O[C@@H]3OCP(=O)(O)O[C@@H]4[C@@H](OCP(=O)(O)O[C@@H]2[C@@H]3O)O[C@@H](n2cnc3c(N)ncnc32)[C@@H]4O)c(=O)[nH]1 [Compound 61, (1R,6R,8R,9R,10S,15R,17R,18S)-17-{5-amino-7-oxo-3H,6H,7H-[1,2,3]triazolo[4,5-d]pyrimidin-3-yl}-8-(6-amino-9H-purin-9-yl)-3,9,12,18-tetrahydroxy-2,5,7,11,14,16-hexaoxa-3λ^5,12λ^5-diphosphatricyclo[13.2.1.0^6,10]octadecane-3,12-dione] | 10 | 7.57 | 17.6 |
| Nc1nc2c(nnn2[C@@H]2O[C@@H]3OCP(=O)(O)O[C@H]4[C@H](O)[C@H](n5cnc6c(N)ncnc65)O[C@@H]4COP(=O)(O)O[C@@H]2[C@@H]3O)c(=O)[nH]1 [Compound 62, (1R,6R,8R,9S,10S,15R,17R,18S)-17-{5-amino-7-oxo-3H,6H,7H-[1,2,3]triazolo[4,5-d]pyrimidin-3-yl}-8-(6-amino-9H-purin-9-yl)-3,9,12,18-tetrahydroxy-2,4,7,11,14,16-hexaoxa-3λ^5,12λ^5-diphosphatricyclo[13.2.1.0^6,10]octadecane-3,12-dione] | 16 | 7.30 | 22.9 |
| Nc1nc2c(nnn2[C@@H]2O[C@@H]3OCP(=O)(O)OC4C(F)[C@H](n5cnc6c(N)ncnc65)O[C@@H]4COP(=O)(O)OC2C3O)c(=O)[nH]1 (stereo partly drawn) [Compound 63, (6R,8R,15R,17R)-17-{5-amino-7-oxo-3H,6H,7H-[1,2,3]triazolo[4,5-d]pyrimidin-3-yl}-8-(6-amino-9H-purin-9-yl)-9-fluoro-3,12,18-trihydroxy-2,4,7,11,14,16-hexaoxa-3λ^5,12λ^5-diphosphatricyclo[13.2.1.0^6,10]octadecane-3,12-dione] | 19.5 | 8.10 | 26.4 |
